From ChEMBL document CHEMBL5291721, “A preclinical secondary pharmacology resource illuminates target-adverse drug reaction associations of marketed drugs” (Nat Commun, 2023)

Tests used:
[1] = target: Voltage-dependent L-type calcium channel subunit alpha-1C (Rattus norvegicus, UniProt P22002); type: functional
[2] = target: T1, Muscarinic acetylcholine receptor M1 (Homo sapiens, UniProt P11229); type: functional
T1 sequence (P11229 whole entry): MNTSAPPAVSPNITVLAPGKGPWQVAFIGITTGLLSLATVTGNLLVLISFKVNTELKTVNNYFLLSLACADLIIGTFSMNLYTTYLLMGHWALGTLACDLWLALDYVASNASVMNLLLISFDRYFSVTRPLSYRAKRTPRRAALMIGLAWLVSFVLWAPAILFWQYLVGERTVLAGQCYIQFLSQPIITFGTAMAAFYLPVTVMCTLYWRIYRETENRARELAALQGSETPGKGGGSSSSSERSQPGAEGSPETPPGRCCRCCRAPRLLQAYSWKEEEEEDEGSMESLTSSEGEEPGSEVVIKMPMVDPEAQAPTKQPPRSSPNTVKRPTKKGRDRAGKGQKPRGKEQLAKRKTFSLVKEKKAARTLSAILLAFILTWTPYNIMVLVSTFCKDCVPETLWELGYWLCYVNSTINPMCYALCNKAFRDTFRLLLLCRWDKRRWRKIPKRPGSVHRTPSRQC

[3] = target: T2, Muscarinic acetylcholine receptor M2 (Homo sapiens, UniProt P08172); type: functional, cell-based
T2 sequence (P08172 whole entry): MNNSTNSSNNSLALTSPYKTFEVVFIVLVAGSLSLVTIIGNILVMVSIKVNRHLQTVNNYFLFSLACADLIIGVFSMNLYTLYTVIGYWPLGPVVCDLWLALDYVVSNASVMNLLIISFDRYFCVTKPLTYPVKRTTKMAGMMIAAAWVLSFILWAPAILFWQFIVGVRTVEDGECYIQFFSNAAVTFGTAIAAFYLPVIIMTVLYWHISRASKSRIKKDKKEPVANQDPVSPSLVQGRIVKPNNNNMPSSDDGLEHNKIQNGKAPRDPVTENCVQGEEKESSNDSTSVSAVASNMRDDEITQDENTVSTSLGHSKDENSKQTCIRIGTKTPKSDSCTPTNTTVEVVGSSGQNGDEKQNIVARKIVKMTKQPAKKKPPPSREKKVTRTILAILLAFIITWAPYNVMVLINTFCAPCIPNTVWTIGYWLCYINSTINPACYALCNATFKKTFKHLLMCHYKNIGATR

Histamine H1 receptor = Histamine H1 receptor (Homo sapiens, UniProt P35367)
[4] = target: Voltage-gated inwardly rectifying potassium channel KCNH2 (Homo sapiens, UniProt Q12809); type: functional; conditions: read-out: AC50
Motilin receptor = Motilin receptor (Homo sapiens, UniProt O43193)
[5] = target: T3, Prostaglandin G/H synthase 1 (Rattus norvegicus, UniProt Q63921); type: functional
T3 sequence (Q63921 whole entry): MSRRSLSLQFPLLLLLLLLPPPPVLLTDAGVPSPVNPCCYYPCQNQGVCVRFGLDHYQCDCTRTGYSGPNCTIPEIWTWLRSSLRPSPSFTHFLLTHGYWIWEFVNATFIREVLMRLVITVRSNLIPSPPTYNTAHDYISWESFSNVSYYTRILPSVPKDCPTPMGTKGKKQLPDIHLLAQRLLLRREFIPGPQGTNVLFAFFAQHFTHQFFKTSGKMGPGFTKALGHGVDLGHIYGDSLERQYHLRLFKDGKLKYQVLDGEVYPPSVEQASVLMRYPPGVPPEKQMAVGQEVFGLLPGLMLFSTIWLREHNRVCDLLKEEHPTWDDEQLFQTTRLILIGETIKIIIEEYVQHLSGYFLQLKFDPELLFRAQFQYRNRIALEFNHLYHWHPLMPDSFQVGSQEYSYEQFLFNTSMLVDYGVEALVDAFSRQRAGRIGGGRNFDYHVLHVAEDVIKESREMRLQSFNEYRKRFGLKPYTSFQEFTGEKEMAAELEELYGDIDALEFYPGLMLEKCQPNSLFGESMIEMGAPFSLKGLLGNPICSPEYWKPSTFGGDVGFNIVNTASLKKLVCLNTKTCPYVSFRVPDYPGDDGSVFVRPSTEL

[6] = target: T4, Equilibrative nucleoside transporter 1 (Homo sapiens, UniProt Q99808)
T4 sequence (Q99808 whole entry): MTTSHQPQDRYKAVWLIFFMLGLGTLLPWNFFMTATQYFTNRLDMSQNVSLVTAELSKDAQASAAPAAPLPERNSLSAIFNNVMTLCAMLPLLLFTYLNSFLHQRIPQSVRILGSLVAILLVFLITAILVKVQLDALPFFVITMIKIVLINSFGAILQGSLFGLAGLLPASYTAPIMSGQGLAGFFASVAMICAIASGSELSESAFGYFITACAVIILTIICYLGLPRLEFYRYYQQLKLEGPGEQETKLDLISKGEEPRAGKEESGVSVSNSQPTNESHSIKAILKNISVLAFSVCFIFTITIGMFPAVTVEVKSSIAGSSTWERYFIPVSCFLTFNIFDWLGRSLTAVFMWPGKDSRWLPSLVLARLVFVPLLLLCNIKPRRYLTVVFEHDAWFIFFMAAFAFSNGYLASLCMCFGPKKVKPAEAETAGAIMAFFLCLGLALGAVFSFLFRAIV

[7] = target: Sodium-dependent dopamine transporter (Homo sapiens, UniProt Q01959)
[8] = target: Sodium-dependent serotonin transporter (Homo sapiens, UniProt P31645)
Histamine H3 receptor = Histamine H3 receptor (Homo sapiens, UniProt Q9Y5N1)
[9] = target: T5, Alpha-1A adrenergic receptor (Homo sapiens, UniProt P35348); type: functional, cell-based
T5 sequence (P35348 whole entry): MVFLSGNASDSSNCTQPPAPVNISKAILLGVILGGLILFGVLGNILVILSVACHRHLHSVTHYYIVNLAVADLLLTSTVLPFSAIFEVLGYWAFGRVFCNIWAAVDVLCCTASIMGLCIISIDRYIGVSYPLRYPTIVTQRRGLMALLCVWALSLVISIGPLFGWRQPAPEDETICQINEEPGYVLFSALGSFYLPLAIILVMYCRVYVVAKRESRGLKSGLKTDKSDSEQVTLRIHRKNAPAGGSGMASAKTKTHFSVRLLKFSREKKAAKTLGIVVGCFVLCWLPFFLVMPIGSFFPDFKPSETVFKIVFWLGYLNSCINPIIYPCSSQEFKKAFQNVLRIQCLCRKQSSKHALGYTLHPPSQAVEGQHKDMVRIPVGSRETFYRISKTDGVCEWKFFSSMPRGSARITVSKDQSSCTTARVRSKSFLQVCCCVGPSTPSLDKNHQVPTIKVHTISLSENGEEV
Further: assay procedure not described here.

Sequence of Sodium-dependent dopamine transporter (Q01959 whole entry): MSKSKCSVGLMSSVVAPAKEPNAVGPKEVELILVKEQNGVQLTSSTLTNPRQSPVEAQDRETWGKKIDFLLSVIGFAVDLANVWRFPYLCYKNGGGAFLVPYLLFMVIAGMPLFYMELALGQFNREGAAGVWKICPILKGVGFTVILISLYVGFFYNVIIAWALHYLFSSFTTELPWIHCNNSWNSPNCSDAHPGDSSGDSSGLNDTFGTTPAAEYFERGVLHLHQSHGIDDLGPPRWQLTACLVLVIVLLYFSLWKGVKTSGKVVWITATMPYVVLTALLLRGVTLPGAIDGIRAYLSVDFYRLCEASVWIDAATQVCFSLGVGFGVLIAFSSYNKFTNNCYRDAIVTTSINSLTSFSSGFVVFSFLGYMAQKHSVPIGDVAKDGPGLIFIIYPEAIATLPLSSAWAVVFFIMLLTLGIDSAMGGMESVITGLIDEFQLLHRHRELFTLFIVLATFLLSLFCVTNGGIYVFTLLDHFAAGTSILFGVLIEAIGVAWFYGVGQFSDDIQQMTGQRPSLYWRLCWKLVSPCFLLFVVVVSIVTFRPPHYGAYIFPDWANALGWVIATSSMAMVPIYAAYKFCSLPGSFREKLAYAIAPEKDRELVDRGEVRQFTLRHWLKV
Sequence of Sodium-dependent serotonin transporter (P31645 whole entry): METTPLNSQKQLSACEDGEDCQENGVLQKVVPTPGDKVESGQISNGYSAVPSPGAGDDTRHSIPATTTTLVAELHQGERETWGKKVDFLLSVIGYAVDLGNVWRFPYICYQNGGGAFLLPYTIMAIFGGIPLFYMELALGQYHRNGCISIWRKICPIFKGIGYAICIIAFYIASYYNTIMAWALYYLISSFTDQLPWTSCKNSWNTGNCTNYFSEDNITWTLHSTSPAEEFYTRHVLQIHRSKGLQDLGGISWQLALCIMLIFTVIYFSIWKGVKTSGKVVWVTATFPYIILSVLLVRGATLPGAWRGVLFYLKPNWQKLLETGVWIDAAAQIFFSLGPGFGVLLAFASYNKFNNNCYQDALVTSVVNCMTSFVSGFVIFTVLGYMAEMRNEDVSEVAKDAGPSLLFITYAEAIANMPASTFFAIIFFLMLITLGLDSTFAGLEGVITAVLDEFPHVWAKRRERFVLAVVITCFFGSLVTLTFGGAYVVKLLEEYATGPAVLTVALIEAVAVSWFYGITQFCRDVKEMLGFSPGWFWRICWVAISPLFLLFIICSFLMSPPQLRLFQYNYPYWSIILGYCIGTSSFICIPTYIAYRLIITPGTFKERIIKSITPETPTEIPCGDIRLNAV
Sequence of Histamine H3 receptor (Q9Y5N1 whole entry): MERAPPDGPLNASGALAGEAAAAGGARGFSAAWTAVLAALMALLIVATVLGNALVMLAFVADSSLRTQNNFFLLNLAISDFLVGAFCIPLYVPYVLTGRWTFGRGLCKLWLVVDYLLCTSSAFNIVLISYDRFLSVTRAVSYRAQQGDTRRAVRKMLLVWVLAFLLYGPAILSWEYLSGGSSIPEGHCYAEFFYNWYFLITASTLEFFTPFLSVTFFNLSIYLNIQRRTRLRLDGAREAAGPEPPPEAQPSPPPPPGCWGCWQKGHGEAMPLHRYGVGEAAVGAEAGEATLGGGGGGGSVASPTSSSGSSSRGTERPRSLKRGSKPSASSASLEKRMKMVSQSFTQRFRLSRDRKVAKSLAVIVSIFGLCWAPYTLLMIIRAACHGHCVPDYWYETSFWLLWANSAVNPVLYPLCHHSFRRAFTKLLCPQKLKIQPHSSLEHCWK
Sequence of Voltage-gated inwardly rectifying potassium channel KCNH2 (Q12809 whole entry): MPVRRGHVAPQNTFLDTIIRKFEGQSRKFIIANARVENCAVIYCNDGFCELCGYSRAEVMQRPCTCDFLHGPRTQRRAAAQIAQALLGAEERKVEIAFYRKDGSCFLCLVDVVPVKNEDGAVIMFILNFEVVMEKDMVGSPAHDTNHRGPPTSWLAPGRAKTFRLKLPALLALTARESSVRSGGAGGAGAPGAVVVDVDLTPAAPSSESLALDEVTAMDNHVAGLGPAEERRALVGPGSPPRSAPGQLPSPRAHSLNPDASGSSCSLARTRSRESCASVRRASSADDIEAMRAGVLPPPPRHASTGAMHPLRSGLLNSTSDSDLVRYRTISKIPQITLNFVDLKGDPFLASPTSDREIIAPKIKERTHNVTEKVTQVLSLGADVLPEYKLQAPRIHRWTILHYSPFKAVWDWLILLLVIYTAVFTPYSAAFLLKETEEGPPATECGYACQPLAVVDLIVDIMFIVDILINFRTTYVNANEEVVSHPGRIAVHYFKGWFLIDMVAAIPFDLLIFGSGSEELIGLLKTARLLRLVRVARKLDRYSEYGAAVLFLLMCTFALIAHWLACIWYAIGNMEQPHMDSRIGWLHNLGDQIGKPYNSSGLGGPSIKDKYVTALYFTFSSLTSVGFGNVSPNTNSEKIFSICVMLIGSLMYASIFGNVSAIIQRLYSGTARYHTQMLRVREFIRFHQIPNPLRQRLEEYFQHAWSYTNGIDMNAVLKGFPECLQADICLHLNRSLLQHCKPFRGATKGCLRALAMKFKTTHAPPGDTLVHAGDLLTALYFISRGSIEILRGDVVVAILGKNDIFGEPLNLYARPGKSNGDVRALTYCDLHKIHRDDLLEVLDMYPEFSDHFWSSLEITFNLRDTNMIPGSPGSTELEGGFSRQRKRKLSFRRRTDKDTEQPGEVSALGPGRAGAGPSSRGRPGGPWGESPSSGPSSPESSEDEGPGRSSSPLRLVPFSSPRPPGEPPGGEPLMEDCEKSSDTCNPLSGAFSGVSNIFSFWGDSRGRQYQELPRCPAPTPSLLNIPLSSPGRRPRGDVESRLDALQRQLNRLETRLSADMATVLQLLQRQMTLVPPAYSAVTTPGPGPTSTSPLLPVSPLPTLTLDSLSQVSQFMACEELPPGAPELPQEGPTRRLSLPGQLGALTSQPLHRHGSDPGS
Sequence of Motilin receptor (O43193 whole entry): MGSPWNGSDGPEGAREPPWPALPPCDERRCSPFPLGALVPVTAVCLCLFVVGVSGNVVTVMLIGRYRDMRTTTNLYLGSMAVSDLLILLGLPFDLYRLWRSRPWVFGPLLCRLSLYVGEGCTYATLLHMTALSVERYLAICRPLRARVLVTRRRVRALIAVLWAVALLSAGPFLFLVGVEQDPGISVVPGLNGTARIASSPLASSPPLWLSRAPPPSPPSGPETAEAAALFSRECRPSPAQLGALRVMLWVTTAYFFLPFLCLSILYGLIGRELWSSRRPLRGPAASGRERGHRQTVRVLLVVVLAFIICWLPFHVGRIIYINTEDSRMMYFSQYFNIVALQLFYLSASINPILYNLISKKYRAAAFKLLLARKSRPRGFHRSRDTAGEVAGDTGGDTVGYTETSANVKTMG
Sequence of Histamine H1 receptor (P35367 whole entry): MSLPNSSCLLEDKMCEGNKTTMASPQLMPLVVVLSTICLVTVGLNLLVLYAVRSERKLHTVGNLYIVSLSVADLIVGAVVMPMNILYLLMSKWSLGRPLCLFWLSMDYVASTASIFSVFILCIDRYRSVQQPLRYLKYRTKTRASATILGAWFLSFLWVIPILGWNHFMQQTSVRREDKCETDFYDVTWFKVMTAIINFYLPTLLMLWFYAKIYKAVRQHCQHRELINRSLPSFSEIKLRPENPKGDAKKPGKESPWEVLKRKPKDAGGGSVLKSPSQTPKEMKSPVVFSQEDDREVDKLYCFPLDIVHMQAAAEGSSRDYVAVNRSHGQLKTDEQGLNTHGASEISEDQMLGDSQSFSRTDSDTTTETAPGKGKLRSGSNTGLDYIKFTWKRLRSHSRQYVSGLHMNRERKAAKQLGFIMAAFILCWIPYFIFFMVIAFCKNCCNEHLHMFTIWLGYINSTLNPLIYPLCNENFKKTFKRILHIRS

`CCC(NC(C)C)C(O)c1ccc(O)c(O)c1` (stereo unspecified) [ISOETHARINE] was tested, and the AC50 [1] was greater than 30 µM, the AC50 [2] was greater than 30 µM and the AC50 [3] was greater than 30 µM. For the same compound, the AC50 (Histamine H1 receptor) was greater than 30 µM, the AC50 [4] was greater than 30 µM and the AC50 (Motilin receptor) was greater than 30 µM. The AC50 [5] was 0.66 µM, the AC50 [6] was greater than 30 µM and the AC50 [7] was 19.6 µM. The AC50 [8] was greater than 30 µM and the AC50 (Histamine H3 receptor) was greater than 30 µM.
With `CCC1(CC)C(=O)NC(=O)N(C)C1=O` [METHARBITAL] the AC50 [1] was greater than 10 µM, the AC50 [2] was greater than 10 µM and the AC50 [3] was greater than 10 µM. It also gave an AC50 (Histamine H1 receptor) greater than 10 µM, an AC50 [4] greater than 30 µM and an AC50 (Motilin receptor) greater than 10 µM. The AC50 [5] was greater than 10 µM, the AC50 [6] was greater than 10 µM and the AC50 [7] was greater than 10 µM. It also gave an AC50 [8] greater than 10 µM and an AC50 (Histamine H3 receptor) greater than 10 µM.
`CC1NCCOC1c1ccccc1` (stereo unspecified) [PHENMETRAZINE] was tested, and the AC50 [1] was greater than 10 µM, the AC50 [2] was greater than 10 µM and the AC50 [3] was greater than 10 µM. It also gave an AC50 (Histamine H1 receptor) greater than 10 µM, an AC50 [4] greater than 30 µM and an AC50 (Motilin receptor) greater than 10 µM. It also gave an AC50 [5] greater than 30 µM, an AC50 [6] greater than 30 µM and an AC50 [7] of 25.6 µM. The AC50 [8] was greater than 30 µM and the AC50 (Histamine H3 receptor) was greater than 10 µM.
With `CCOC(=O)O[C@]1(C(=O)COC(=O)CC)CC[C@H]2[C@@H]3CCC4=CC(=O)C=C[C@]4(C)[C@H]3[C@@H](O)C[C@@]21C` [PREDNICARBATE] the AC50 [1] was greater than 10 µM, the AC50 [2] was greater than 10 µM and the AC50 [3] was greater than 10 µM. For the same compound, the AC50 (Histamine H1 receptor) was greater than 10 µM, the AC50 [4] was greater than 30 µM and the AC50 (Motilin receptor) was greater than 10 µM. For the same compound, the AC50 [5] was greater than 10 µM, the AC50 [6] was greater than 10 µM and the AC50 [7] was greater than 10 µM. The AC50 [8] was greater than 10 µM.
`CCC(=O)[C@@]1(C)[C@H](C)C[C@H]2[C@@H]3CCC4=CC(=O)C=C[C@]4(C)[C@H]3[C@@H](O)C[C@@]21C` [RIMEXOLONE] showed an AC50 [1] greater than 10 µM, an AC50 [2] greater than 10 µM and an AC50 [3] greater than 10 µM. It also gave an AC50 (Histamine H1 receptor) greater than 10 µM, an AC50 [4] greater than 30 µM and an AC50 (Motilin receptor) greater than 10 µM. The AC50 [5] was greater than 10 µM, the AC50 [6] was greater than 10 µM and the AC50 [7] was greater than 10 µM. For the same compound, the AC50 [8] was greater than 10 µM.
`CS(=O)(=O)NC(=O)CCC/C=C\C[C@H]1C(=O)C[C@@H](O)[C@@H]1/C=C/[C@@H](O)COc1ccccc1` [SULPROSTONE] showed an AC50 [2] greater than 30 µM, an AC50 [3] greater than 30 µM and an AC50 (Histamine H1 receptor) greater than 30 µM. The AC50 [4] was greater than 30 µM, the AC50 (Motilin receptor) was greater than 30 µM and the AC50 [5] was greater than 30 µM. For the same compound, the AC50 [6] was greater than 30 µM, the AC50 [7] was greater than 30 µM and the AC50 [8] was greater than 30 µM. For the same compound, the AC50 [9] was greater than 30 µM and the AC50 (Histamine H3 receptor) was greater than 30 µM.
Compound `CCCCC[C@H](O)CC[C@@H]1[C@H]2Cc3cccc(OCC(=O)O)c3C[C@H]2C[C@H]1O` [TREPROSTINIL] has an AC50 [2] greater than 30 µM, an AC50 [3] greater than 30 µM and an AC50 (Histamine H1 receptor) greater than 30 µM. It also gave an AC50 [4] greater than 30 µM, an AC50 (Motilin receptor) greater than 30 µM and an AC50 [5] greater than 30 µM. The AC50 [6] was greater than 30 µM, the AC50 [7] was greater than 30 µM and the AC50 [8] was greater than 30 µM. It also gave an AC50 [9] greater than 30 µM and an AC50 (Histamine H3 receptor) greater than 30 µM.
For `CCCCCCCC(=O)CC[C@@H]1[C@@H](C/C=C\CCCC(=O)O)[C@@H](O)C[C@H]1O` [UNOPROSTONE], the AC50 [2] was greater than 30 µM, the AC50 [3] was greater than 30 µM and the AC50 (Histamine H1 receptor) was greater than 30 µM. It also gave an AC50 [4] greater than 30 µM, an AC50 (Motilin receptor) greater than 30 µM and an AC50 [5] greater than 30 µM. For the same compound, the AC50 [6] was greater than 30 µM, the AC50 [7] was greater than 30 µM and the AC50 [8] was greater than 30 µM. For the same compound, the AC50 [9] was greater than 30 µM and the AC50 (Histamine H3 receptor) was greater than 30 µM.
